In brackets after ≈: the same amount, converted by molar mass.
Experiments:
Assay type in all cases: cell-based
S.aureus FDA 209P = assay: Antibacterial Test 2: agar plate dilution method (aerobic MIC method), S.aureus; conditions: Staphylococcus aureus, FDA209P, sensitive-disk agar medium-N
Method: (§1) Then, tested were antibacterial activities of the typical compounds of the present invention against gram-positive and-negative bacteria other than Hp. MICs of the typical compounds of the present invention were determined in substantial accordance with agar plate dilution method (aerobic MIC method) based on Standard method of The Japan Society of Chemotherapy.
(§2) The respective test compound were dissolved in dimethyl sulfoxide (DMSO) and serially diluted twofold. These diluted solutions of the compounds were respectively added to sensitive-disk agar medium-N (manufactured by NISSUI SEIYAKU) to prepare agar plates for determination with concentration of 0.05-100 μg/ml.
(§3) The below-mentioned strains freezingly conserved at -135° C. were thawed in a warm bath (40° C.), cultured in a sensitivity-determining bouillon at 37° C. for 18-20 hours, and then diluted with the above-mentioned medium to prepare about 1.0×10^6CFU/ml of bacterial solution.
(§4) Inoculation was made by 5 μl by multi-inoculator (manufactured by SAKUMA SEISAKUSHO). Culturing was made under the same conditions as those of the pre-culturing and the MIC (unit: μg/ml) was determined by observing whether the bacteria grew or not.

M.luteus ATCC 9341 = assay: Antibacterial Test 2: agar plate dilution method (aerobic MIC method), M.luteus; conditions: Micrococcus luteus, ATCC9341, sensitive-disk agar medium-N
Method: as §1, §2, §3, §4

B.subtilis PCI 219 = assay: Antibacterial Test 2: agar plate dilution method (aerobic MIC method), B.subtilis; conditions: Bacillus subtilis, PCI219, sensitive-disk agar medium-N
Method: as §1, §2, §3, §4

K.pneumoniae PCI 602 = assay: Antibacterial Test 2: agar plate dilution method (aerobic MIC method), K.pneumoniae; conditions: Klebsiella pneumoniae, PCI602, sensitive-disk agar medium-N
Method: as §1, §2, §3, §4

[1] = system: Helicobacter pylori standard strain ATCC 43526 (NCTC 11916); assay: Antibacterial test 1: agar plate dilution method (anaerobic MIC method) against Hp; conditions: 72 h; Helicobacter pylori ATCC 43526 (NCTC 11916); brucella agar + 7% horse blood, microaerobic, 37° C., 3 days
Method: Antibacterial test against Hp was performed in substantial accordance with agar plate dilution method (anaerobic MIC method) based on Standard method of The Japan Society of Chemotherapy to determine minimum inhibitory concentration (MIC) of the respective test compounds. The respective test compounds were sequentially dissolved in dimethyl sulfoxide (DMSO) and serially diluted twofold. […] Strain used for inoculation was Helicobacter pylori standard strain ATCC 43526 (NCTC 11916). For pre-culturing of bacteria to be inoculated, the above-mentioned strain freezingly conserved at -135° C. was thawed in a warm bath (40° C.), applied on a brucella agar medium containing 7% horse blood free from fibrin, and microaerobically cultured in a jar for anaerobic bacteria at 37° C. for 3 days. The solution of bacteria to be inoculated was prepared by collecting colonies grown on the culture medium and suspending the same in the brucella broth.

E.faecalis RIMD 3336001 = assay: Antibacterial Test 2: agar plate dilution method (aerobic MIC method), E.faecalis; conditions: Enterococcus faecalis, RIMD3336001, sensitive-disk agar medium-N
Method: as §1, §2, §3, §4

P.aeruginosa IFO 3445 = assay: Antibacterial Test 2: agar plate dilution method (aerobic MIC method), P.aeruginosa; conditions: Pseudomonas aeruginosa, IFO3445, sensitive-disk agar medium-N
Method: as §1, §2, §3, §4

E.coli NIHJ JC-2 = assay: Antibacterial Test 2: agar plate dilution method (aerobic MIC method), E.coli; conditions: Escherichia coli, NIHJJC2, sensitive-disk agar medium-N
Method: as §1, §2, §3, §4

| SMILES | MIC (S.aureus FDA 209P) [µg/mL] | MIC (M.luteus ATCC 9341) [µg/mL] | MIC (B.subtilis PCI 219) [µg/mL] | MIC (K.pneumoniae PCI 602) [µg/mL] | MIC [1] [µg/mL] | MIC (E.faecalis RIMD 3336001) [µg/mL] | MIC (P.aeruginosa IFO 3445) [µg/mL] | MIC (E.coli NIHJ JC-2) [µg/mL] |
| --- | --- | --- | --- | --- | --- | --- | --- | --- |
| S=c1cc[nH]c2cc(Oc3ccccc3)ccc12 [compound 38, 7-Phenoxyquinoline-4(1H)-thione] | > 100 | > 100 | > 100 | > 100 | 0.78 | > 100 | > 100 | > 100 |
| CN(C)c1ccc2c(=S)cc[nH]c2c1 [compound 48, 7-N,N-Dimethylaminoquinoline-4(1H)-thione] | 100 (≈ 489 µM) | > 100 | > 100 | > 100 | 0.2 | > 100 | > 100 | > 100 |
| S=c1cc[nH]c2cc(/C=C/c3ccccc3)ccc12 [compound 32, trans-7-Styrylquinoline-4(1H)-thione] | > 100 | > 100 | > 100 | > 100 | 0.78 | > 100 | > 100 | > 100 |
| O=[N+]([O-])c1cccc2c(=S)cc[nH]c12 [compound 7, 8-Nitroquinoline-4(1H)-thione] | – | – | – | – | 6.25 | – | – | – |
| COc1cccc2c(=S)cc[nH]c12 [compound 42, 8-Methoxyquinoline-4(1H)-thione] | – | – | – | – | 0.39 | – | – | – |
| S=c1cc[nH]c2c1ccc1ccccc12 [compound 39, Benzo[h]quinoline-4(1H)-thione] | > 100 | > 100 | > 100 | > 100 | 0.39 | > 100 | > 100 | > 100 |
| O=[N+]([O-])c1ccc2c(=S)cc[nH]c2c1 [compound 19, 7-Nitroquinoline-4(1H)-thione] | – | – | – | – | 3.13 | – | – | – |
| CC(=O)OCc1ccc2c(=S)cc[nH]c2c1 [compound 29, 7-Acetoxymethylquinoline-4(1H)-thione] | 25 (≈ 107 µM) | 50 (≈ 214 µM) | 100 (≈ 429 µM) | > 100 | 0.78 | 50 (≈ 214 µM) | > 100 | > 100 |
| CC(C)Oc1ccc2c(=S)cc[nH]c2c1 [compound 23, 7-Isopropyloxyquinoline-4(1H)-thione] | > 100 | > 100 | > 100 | > 100 | 0.78 | > 100 | > 100 | > 100 |
| CCCOc1ccc2c(=S)cc[nH]c2c1 [compound 26, 7-n-Propoxyquinoline-4(1H)-thione] | 100 (≈ 456 µM) | > 100 | > 100 | > 100 | 1.56 | > 100 | > 100 | > 100 |
| S=c1cc[nH]c2cc(N3CCOCC3)ccc12 [compound 36, 7-Morpholinoquinoline-4(1H)-thione] | 100 (≈ 406 µM) | 100 (≈ 406 µM) | 100 (≈ 406 µM) | > 100 | 0.39 | > 100 | > 100 | > 100 |
| CCCCCCCCCCCCOc1ccc2c(=S)cc[nH]c2c1 [compound 52, 7-Dodecyloxyquinoline-4(1H)-thione] | – | – | – | – | 6.25 | – | – | – |
| S=c1cc[nH]c2cc(-c3ccc4ccccc4c3)ccc12 [compound 46, 7-(2-Naphtyl)quinoline-4(1H)-thione] | – | – | – | – | 3.13 | – | – | – |

Continued by falling MIC [1], values first:

| MIC (S.aureus FDA 209P) [µg/mL] | MIC (M.luteus ATCC 9341) [µg/mL] | MIC (B.subtilis PCI 219) [µg/mL] | MIC (K.pneumoniae PCI 602) [µg/mL] | MIC [1] [µg/mL] | MIC (E.faecalis RIMD 3336001) [µg/mL] | MIC (P.aeruginosa IFO 3445) [µg/mL] | MIC (E.coli NIHJ JC-2) [µg/mL] | SMILES |
| --- | --- | --- | --- | --- | --- | --- | --- | --- |
| – | – | – | – | 6.25 | – | – | – | NC(=O)c1ccc2c(=S)cc[nH]c2c1 [compound 12, 7-Carbamoylquinoline-4(1H)-thione] |
| – | – | – | – | 6.25 | – | – | – | CN(C)Cc1ccc2c(=S)cc[nH]c2c1 [compound 33, 7-N,N-Dimethylaminomethylquinoline-4(1H)-thione] |
| – | – | – | – | 6.25 | – | – | – | S=c1cc[nH]c2cc(OCc3ccccc3)ccc12 [compound 25, 7-Benzyloxyquinoline-4(1H)-thione] |
| > 100 | > 100 | > 100 | > 100 | 3.13 | > 100 | > 100 | > 100 | CCCCCCCCOc1ccc2c(=S)cc[nH]c2c1 [compound 53, 7-Octyloxyquinoline-4(1H)-thione] |
| > 100 | > 100 | > 100 | > 100 | 3.13 | > 100 | > 100 | > 100 | CCOc1ccc2c(=S)cc[nH]c2c1 [compound 22, 7-Ethoxyquinoline-4(1H)-thione] |
| > 100 | > 100 | > 100 | > 100 | 1.56 | > 100 | > 100 | > 100 | CC(C)c1ccc2c(=S)cc[nH]c2c1 [compound 2, 7-Isopropylquinoline-4(1H)-thione] |
| – | – | – | – | 1.56 | – | – | – | CC(=O)c1ccc2c(=S)cc[nH]c2c1 [compound 13, 7-Acetylquinoline-4(1H)-thione] |
| > 100 | > 100 | > 100 | > 100 | 1.56 | > 100 | > 100 | > 100 | CCCCCCOc1ccc2c(=S)cc[nH]c2c1 [compound 24, 7-n-Hexyloxyquinoline-4(1H)-thione] |
| > 100 | > 100 | > 100 | > 100 | 1.56 | > 100 | > 100 | > 100 | S=c1cc[nH]c2cc(-c3ccccc3)ccc12 [compound 3, 7-Phenylquinoline-4(1H)-thione] |
| > 100 | 100 (≈ 303 µM) | > 100 | > 100 | 1.56 | > 100 | > 100 | > 100 | CCCCCCCCCCCCc1ccc2c(=S)cc[nH]c2c1 [compound 30, 7-Dodecylquinoline-4(1H)-thione] |
| > 100 | > 100 | > 100 | > 100 | 0.78 | > 100 | > 100 | > 100 | Cc1cccc2c(=S)cc[nH]c12 [compound 41, 8-Methylquinoline-4(1H)-thione] |
| – | – | – | – | 0.39 | – | – | – | S=c1cc[nH]c2c1ccc1cccnc12 [compound 45, 1,10-Phenanthroline-4(1H)-thione] |
| > 100 | > 100 | > 100 | > 100 | 0.39 | > 100 | > 100 | > 100 | CSc1ccc2c(=S)cc[nH]c2c1 [compound 17, 7-Methylthioquinoline-4(1H)-thione] |
| > 100 | > 100 | > 100 | > 100 | 0.39 | > 100 | > 100 | > 100 | S=c1cc[nH]c2cc(CCc3ccccc3)ccc12 [compound 31, 7-Phenethylquinoline-4(1H)-thione] |
| 25 (≈ 97.9 µM) | 50 (≈ 196 µM) | > 100 | > 100 | 0.39 | 50 (≈ 196 µM) | > 100 | > 100 | CS(=O)(=O)Oc1ccc2c(=S)cc[nH]c2c1 [compound 28, 7-Methanesulfonyloxyquinoline-4(1H)-thione] |
| > 100 | > 100 | > 100 | > 100 | 0.39 | > 100 | > 100 | > 100 | CCCCCCc1ccc2c(=S)cc[nH]c2c1 [compound 15, 7-n-Hexylquinoline-4(1H)-thione] |
| – | – | – | – | 0.39 | – | – | – | Cc1ccc2c(=S)cc[nH]c2c1 [compound 11, 7-Methylquinoline-4(1H)-thione] |
| > 100 | 50 (≈ 199 µM) | > 100 | > 100 | 0.2 | > 100 | > 100 | > 100 | S=c1cc[nH]c2cc(Cc3ccccc3)ccc12 [compound 47, 7-Benzylquinoline-4(1H)-thione] |
| 0.1 (≈ 0.274 µM) | ≤ 0.05 | 0.2 (≈ 0.547 µM) | 50 (≈ 137 µM) | 0.05 | 0.2 (≈ 0.547 µM) | > 100 | 3.13 (≈ 8.57 µM) | CC1(C)S[C@@H]2[C@H](NC(=O)[C@H](N)c3ccc(O)cc3)C(=O)N2[C@H]1C(=O)O [amoxicillin, reference compound] |

From patent US5773449A, “Thioquinolone compounds which have useful pharmaceutical activity” (Zenyaku Kogyo Kabushiki Kaisha, priority 1994, dated 1998)
